Data on 1 compound can be found in PMC10202359, “Nicotinamide N-methyltransferase (NNMT) regulates the glucocorticoid signaling pathway during the early phase of adipogenesis” (Scientific Reports, 2023).

In one data set the target is T1, DNMT3a (Homo sapiens, UniProt Q9Y6K1).
T1 construct: purchased Reaction Biology Corporation
Put plainly: Methyltransferase Hot Spot radioisotope assay, DNMT3a. The format is biochemical. The following applies: 10-dose, threefold dilution; CC-410 from 300 μM, control from 100 μM; substrate Lambda DNA. Here is the method: (§1) CC-410 was screened in biochemical assays for activity against a panel of 11 methyltransferases (MT) by using the radioisotope (3H-AdoMet) based MT Hot Spot Assay. All the assays were performed by Reaction Biology Corporation (RBC, Malven, PA, USA). Briefly CC-410 was incubated with the selected MTs, corresponding substrates, and radiolabeled SAM (S-Adenosyl-L-[methyl-3 H]methionine). The specific MTs assessed, and the corresponding substrates are as follows: DNMT1- Poly dl-dC, DNMT3a- Lambda DNA, DNMT3b- Lambda DNA, DOT1L- Nucleosomes, EZH2 Complex- Core Histone, METTL21A- HSPA8-[CTD], NRMT1- RCC1, PRMT3- Histone H4, PRMT5/MEP50- Histone H2A, SET1b -Core Histone Complex and SMYD2- Nucleosomes. Reaction mixtures were incubated and spotted onto filter papers, which were then washed to remove unreacted SAM, leaving the bound radiolabeled product. Detection of the radiolabeled, methylated product was performed via a nanoliter-scale radioisotope filter binding platform. […] For each assay, control compounds were included as positive controls for enzyme function and assay reproducibility. […] IC50 was calculated by non-linear least square fitting dose–response curve.

Another data set deals with METTL21A (Homo sapiens, UniProt Q8WXB1). Put plainly: Methyltransferase Hot Spot radioisotope assay, METTL21A. It is filed as biochemical. The following applies: 10-dose, threefold dilution; CC-410 from 300 μM, control from 100 μM; substrate HSPA8-[CTD]. Here is the method: as §1, with “The specific MTs assessed, and the corresponding substrates are as follows: DNMT1- Poly dl-dC, DNMT3a- Lambda DNA, DNMT3b- Lambda DNA, DOT1L- Nucleosomes, EZH2 Complex- Core Histone, METTL21A- HSPA8-[CTD], NRMT1- RCC1, PRMT3- Histone H4, PRMT5/MEP50- Histone H2A, SET1b -Core Histone Complex and SMYD2- Nucleosomes.” left out
METTL21A, sequence (Q8WXB1 whole entry, species assumed): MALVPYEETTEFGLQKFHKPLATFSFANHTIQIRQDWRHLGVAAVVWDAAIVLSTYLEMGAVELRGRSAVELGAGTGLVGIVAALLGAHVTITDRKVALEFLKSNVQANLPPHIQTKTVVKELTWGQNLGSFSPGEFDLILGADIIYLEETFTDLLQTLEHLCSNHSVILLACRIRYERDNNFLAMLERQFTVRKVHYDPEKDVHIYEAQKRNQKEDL

The next data set addresses PRMT3 (Homo sapiens, UniProt O60678). The experiment in a line: Methyltransferase Hot Spot radioisotope assay, PRMT3. It is filed as biochemical. The following applies: text and Fig. 4D curve fit; read-out: IC50 for PRMT3. Here is the method:
as §1, with “The specific MTs assessed, and the corresponding substrates are as follows: DNMT1- Poly dl-dC, DNMT3a- Lambda DNA, DNMT3b- Lambda DNA, DOT1L- Nucleosomes, EZH2 Complex- Core Histone, METTL21A- HSPA8-[CTD], NRMT1- RCC1, PRMT3- Histone H4, PRMT5/MEP50- Histone H2A, SET1b -Core Histone Complex and SMYD2- Nucleosomes.” left out

The target in a further data set is T2, SET1b Complex (Homo sapiens, UniProt Q9UPS6).
T2 construct: purchased Reaction Biology Corporation
The experiment in a line: Methyltransferase Hot Spot radioisotope assay, SET1b Complex. The format is biochemical. Here is the method: as §1

The test system of a further data set is 3T3-L1 cells. The experiment in a line: CellTiter-Blue cell viability assay, 3T3-L1. It is filed as cell-based, mouse. The following applies: highest concentration (1–25 uM tested), assessed at terminal differentiation. Here is the method:
CellTiter-Blue® Cell Viability Assay (Promega) was used following the manufacturer’s instructions. 3T3-L1 cells were seeded at a density of 2 × 10^3 cells per well in 96-well plates and cultured till confluence in standard medium. Two-day post-confluent 3T3-L1 cells were induced with DIM and treated with 1, 5, 10 and 25 µM CC-410 along with an untreated control (0.5% DMSO) in 4 different conditions: every 48 h throughout the differentiation period; once in the first 20 h following DIM stimulation; once 48 h after DIM stimulation; or after the early differentiation phase. In all cases, cell viability was assessed at terminal differentiation. Cell viability percentages were calculated by normalizing the fluorescence recorder (560/590) for the treated samples over untreated controls.
Background: Alamar Blue is a resazurin reagent that responds to reducing activity.

For a further data set, the system named is C3H10T1/2 cells. Put plainly: Oil Red-O staining of adipocyte differentiation, C3H10T1/2. The format is cell-based, mouse. The following applies: 25 µM, first 48 h of DIM induction or throughout the period of differentiation. Here is the method: 3T3-L1 Mouse Embryonic Fibroblasts were purchased from American Type Culture Collection (ATCC CL-173). The cells were propagated and maintained in Dulbecco’s modified Eagle’s medium (DMEM, Gibco) supplemented with 10% calf serum (FCS) at 37 °C in 5% CO2 atmosphere. Subconfluents cells were expanded and utilized for the subsequent experiments at the passages 3–6. To induce differentiation, 2-day post-confluent 3T3-L1 pre-adipocytes were cultured for 48 h with DIM (DMEM supplemented with 10% fetal bovine serum (FBS), 1.0 µM Dexamethasone (G. Biosciences), 1.5 mg/mL Insulin (Sigma) and 0.5 mM IBMX (Sigma). Two days after induction the DIM medium was removed and the cells were maintained in DMED supplemented with 10% FBS and […] Insulin, which was replaced every 48 h, until the cells became fully differentiated (8–10 days after induction). C3H10T1/2 cells were purchased from American Type Culture Collection (ATCC, clone 8, CCL-226, were grown and induced to differentiate following the same protocol, with cell cultures < 3 passages. Oil Red-O staining was used as previously described. Briefly, cells were fixed for 30 min with 4% formaldehyde, stained with filtered Oil Red solution (0.2% oil red in 40% 2-propanol) and washed 5 times with distilled water. […] The dye was eluted with 100% 2-propanol and quantified spectroscopically at 510 nm (Synergy HT, Bio-Tek).

The term IC50 denotes the concentration that gives 50% inhibition.

Molecules are shown by their SMILES. Like-named read-outs stand apart in the source and are kept apart here.

T1 sequence (Q9Y6K1 whole entry, looked up, species assumed): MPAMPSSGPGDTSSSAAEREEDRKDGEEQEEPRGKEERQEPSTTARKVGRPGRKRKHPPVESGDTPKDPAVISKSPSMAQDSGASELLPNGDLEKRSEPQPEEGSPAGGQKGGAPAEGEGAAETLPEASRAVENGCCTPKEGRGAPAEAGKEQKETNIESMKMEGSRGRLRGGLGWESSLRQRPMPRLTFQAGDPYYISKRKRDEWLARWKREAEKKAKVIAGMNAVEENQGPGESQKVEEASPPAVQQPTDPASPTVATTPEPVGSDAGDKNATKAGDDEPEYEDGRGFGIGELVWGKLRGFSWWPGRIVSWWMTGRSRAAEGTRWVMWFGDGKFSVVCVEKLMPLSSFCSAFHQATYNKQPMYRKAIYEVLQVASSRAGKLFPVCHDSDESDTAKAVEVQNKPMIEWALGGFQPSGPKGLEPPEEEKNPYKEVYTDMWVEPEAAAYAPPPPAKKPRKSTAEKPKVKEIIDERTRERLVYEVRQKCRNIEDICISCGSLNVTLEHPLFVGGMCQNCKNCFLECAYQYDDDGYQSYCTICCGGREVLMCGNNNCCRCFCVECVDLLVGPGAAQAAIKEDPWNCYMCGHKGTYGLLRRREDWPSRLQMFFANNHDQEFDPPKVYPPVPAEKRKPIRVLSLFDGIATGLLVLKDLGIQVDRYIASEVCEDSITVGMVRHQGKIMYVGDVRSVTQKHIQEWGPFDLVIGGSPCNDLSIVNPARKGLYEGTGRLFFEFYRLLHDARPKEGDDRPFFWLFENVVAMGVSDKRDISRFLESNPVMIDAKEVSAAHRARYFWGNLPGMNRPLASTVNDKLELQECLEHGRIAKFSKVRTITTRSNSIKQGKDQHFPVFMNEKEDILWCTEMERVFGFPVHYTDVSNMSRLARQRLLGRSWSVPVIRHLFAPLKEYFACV
PRMT3, sequence (O60678 whole entry, species assumed): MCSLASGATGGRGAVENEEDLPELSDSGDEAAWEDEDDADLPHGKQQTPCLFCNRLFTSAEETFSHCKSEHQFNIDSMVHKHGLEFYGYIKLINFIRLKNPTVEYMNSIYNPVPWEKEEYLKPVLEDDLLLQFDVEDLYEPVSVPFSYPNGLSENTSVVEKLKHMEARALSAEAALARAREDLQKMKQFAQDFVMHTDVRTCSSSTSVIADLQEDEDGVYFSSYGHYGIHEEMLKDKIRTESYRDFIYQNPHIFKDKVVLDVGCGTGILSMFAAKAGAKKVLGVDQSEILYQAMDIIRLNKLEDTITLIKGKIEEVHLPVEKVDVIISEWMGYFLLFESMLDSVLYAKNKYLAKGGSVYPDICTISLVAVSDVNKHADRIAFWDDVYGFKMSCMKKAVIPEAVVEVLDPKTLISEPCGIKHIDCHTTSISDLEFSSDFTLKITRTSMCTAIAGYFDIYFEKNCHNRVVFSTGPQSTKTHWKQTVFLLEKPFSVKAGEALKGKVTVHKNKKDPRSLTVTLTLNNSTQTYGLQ

Take `COC(=O)CCC(C)C1CCC2C3C(N)CC4CC(OC(C)=O)CCC4(C)[C@H]3CC(N)C12C` (stereo in doubt) [CC-410, Methyl-(4S)-4-((3S,5S,7S,8S,10R,12R,13S,14R,17S)-3-acetoxy-7,12-diamino-10,13-dimethylhexadecahydro-1H-cyclopenta[a]phenanthren-17-yl) pentanoate]: the “IC50* (M) DNMT3a” value against DNMT3a is listed as “no inhibition or compound activity that could not be fitted to an IC50 curve”. Moreover, the “IC50* (M) METTL21A” value at METTL21A is on record as “no inhibition or compound activity that could not be fitted to an IC50 curve”. Further, the IC50 on PRMT3 came out at 104 µM; at SET1b Complex (10-dose, threefold dilution, CC-410 from 300 μM, control from 100 μM, substrate Core Histone, read-out: IC50* (M) SET1b Complex) it was 0.000121 M; at SET1b Complex (text and Fig. 4D curve fit, read-out: IC50 for SET1b Complex), 0.00012 M. In addition, in the data set with 3T3-L1 cells, the cell viability result is “only a slight reduction in cell viability”. Further, the effect on adipogenesis result in the data set on C3H10T1/2 cells is recorded as “effectively inhibit adipogenesis”.
